Test results taken from patent publication US20230135093A1, “TRIAZOLYL DERIVATIVES AS GABA A ALPHA5 PAM” (Hoffmann-La Roche Inc., priority 2020, published 2023).
pKi: −log10 of the molar value.

Tests used:
h-GABA-A α5β3γ2 [1] = target: T1, h-GABA-A α5β3γ2 (Homo sapiens, UniProt P18507+P31644); assay: [3H]flumazenil competition binding assay on membranes of HEK293 cells expressing GABAA receptors; details: Table 1; displacement of [3H]-Flumazenil (0.5 nM), HEK293 cells expressing human receptors, means of two determinations
T1 construct: expressed in transfected cells; host or cells: Xenopus laevis oocytes, micro-injected with subunit RNA
Protocol: The affinity of compounds at GABAA receptor subtypes was measured by competition for [3H]flumazenil (85 Ci/mmol; Roche) binding to HEK293 cells expressing rat (stably transfected) or human (transiently transfected) receptors of composition α1β3γ2, α2β3γ2, α3β3γ2 and α5β3γ2.
Cell pellets were suspended in Krebs-tris buffer (4.8 mM KCl, 1.2 mM CaCl2, 1.2 mM MgCl2, 120 mM NaCl, 15 mM Tris; pH 7.5; binding assay buffer), homogenized by polytron for ca. 20 sec on ice and centrifuged for 60 min at 4° C. (50000 g; Sorvall, rotor: SM24=20000 rpm). The cell pellets were resuspended in Krebs-tris buffer and homogenized by polytron for ca. 15 sec on ice. Protein was measured (Bradford method, Bio-Rad) and aliquots of 1 mL were prepared and stored at −80° C.
Radioligand binding assays were carried out in a volume of […] (96-well plates) which contained […] of cell membranes, [^3H]-Flumazenil at a concentration of 1 nM for α1, α2, α3 subunits and 0.5 nM for α5 subunits and the test compound in the range of […]. Nonspecific binding was defined by 10^−5 M diazepam and typically represented less than 5% of the total binding. Assays were incubated to equilibrium for 1 hour at 4° C. and harvested onto GF/C uni-filters (Packard) by filtration using a Packard harvester and washing with ice-cold wash buffer (50 mM Tris; pH 7.5). After drying, filter-retained radioactivity was detected by liquid scintillation counting. Ki values were calculated using Excel-Fit (Microsoft) and are the means of two determinations.
In a preferred embodiment the compounds of the invention are binding selective for the α5 subunit relative to the α1, α2 and α3 subunit. Representative test results, obtained by the above described assay measuring binding affinity to HEK293 cells expressing human (h) receptors, are shown in the Table below.

h-GABA-A α5β3γ2 [2] = target: T1, h-GABA-A α5β3γ2; assay: Two-electrode voltage clamp electrophysiology in Xenopus oocytes expressing GABAA receptors (modulation of GABA EC20 current); assay type: cell-based; details: Table 1; for Efficacy (GABA) %: % modulation of GABA EC20 = 100*(Fold increase-1); for Fold increase h-GABA-A α5β3γ2 oocyte: Xenopus oocytes, GABA EC20, test compound at approximatively 30 fold its Ki
Protocol: Xenopus laevis oocytes at maturation stages V-VI were used for the expression of cloned mRNA encoding GABAA receptor subunits. Oocytes ready for RNA micro-injection were bought from Ecocyte, Castrop-Rauxel, Germany and stored in modified Barth's medium (composition in mM: NaCl 88, KCl 1, NaHCO3 2.4, HEPES 10, MgSO4 0.82, CaNO3 0.33, CaCl2 0.33, pH=7.5) at 20° C. until the experiment.
Oocytes were plated in 96-well plates to be used in an automated instrument (Robo-ocyte, MultiChannelSystems, Reutlingen, Germany) for microinjection and electrophysiological recordings. Approximately 50 nl of an aqueous solution containing the RNA transcripts for the subunits of the desired GABAA receptor was injected into each oocyte. RNA concentrations ranged between 0.3 and 16 ng/μl/subunit and were adjusted in pilot experiments to obtain GABA responses of a suitable size and a maximal effect of the reference modulator, Beta-CCM (3-CCM), a betacarboline negative allosteric modulator (NAM) at the GABAA receptor benzodiazepine (BZD) binding site or Midazolam, a benzodiazepine positive allosteric modulator (PAM) at the GABAA receptor benzodiazepine (BZD) binding site. The concentration of the γ2 subunit encoding RNA usually was 5- to 10-fold higher than the RNAs encoding the other subunits. Oocytes were kept in modified Barth's medium (composition in mM: NaCl 88, KCl 1, NaHCO3 4, HEPES 10, MgSO4 0.82, CaNO3 0.33, CaCl2 0.33, pH=7.5) at 20° C. until the experiment.
Electrophysiological experiments were performed on days 3 to 5 after the micro-injection of mRNA. During the experiment the oocytes were constantly superfused by a solution containing (in mM) NaCl 90, KCl 1, HEPES 5, MgCl2 1, CaCl2 1 (pH 7.4). Oocytes were impaled by two glass microelectrodes (resistance: 0.4 MQ) which were filled with a solution containing KCl 1M+K-acetate 1.5 M and voltage-clamped to −80 mV. The recordings were performed at room temperature using the Roboocyte two-electrode voltage clamp system (Multichannelsystem). After an initial equilibration period of 1.5 min GABA was added for 1.5 min at a concentration evoking approximately 20% of a maximal current response (EC20). After another rest interval of 2.5 min GABA was again added evoking a response of similar amplitude and shape. 0.5 min after the onset of this second GABA application the test compound, at a concentration corresponding to approximatively 30 fold its Ki, was added while GABA was still present. Current traces were recorded at a digitization rate of 10 Hz during and shortly before and after the GABA application.
Each compound and concentration was tested on at least 3 oocytes. Different oocytes were used for different compound concentrations. β-CCM, a negative allosteric modulator, or Midazolam, a positive allosteric modulators, were tested on a few (3-6) oocytes on each 96-well plate for a positive control at a maximally effective. β-CCM inhibited the GABA-evoked current by approximatively 50% (Fold increase 0.5), while Midazolam potentiated the GABA-induced current by approximatively 150% (Fold increase 2.5).
For the analysis, the digitized current traces of the first and second GABA response were superimposed and, if necessary, rescaled to equal maximal amplitudes. The ratio between the two responses during the time interval of test compound application was calculated point by point. The extremum of the resulting “ratio trace” was taken as the efficacy (“Fold increase”) of the compound expressed as “% modulation of GABA EC20” (100*(Fold increase-1)).

Row | pKi (h-GABA-A α5β3γ2 [1]) | Efficacy (GABA) % (h-GABA-A α5β3γ2 [2]) | Fold increase h-GABA-A α5β3γ2 oocyte (h-GABA-A α5β3γ2 [2]) | Compound
1 | 7.92 | 75% | 1.75 | Cn1nnc(-c2ccc(Cl)cc2F)c1Cn1ncc(N2CCN(C3CC3)CC2)cc1=O [Example 17, 2-[[5-(4-chloro-2-fluoro-phenyl)-3-methyl-triazol-4-yl]methyl]-5-(4-cyclopropyl-piperazin-1-yl)pyridazin-3-one]
2 | 9.10 | 79% | 1.79 | Cc1ccc(-c2nnn(C)c2Cn2ncc(N3CCC[C@H]3C)cc2=O)cn1 [Example 18, 2-[[3-methyl-5-(6-methyl-3-pyridyl)triazol-4-yl]methyl]-5-[(2R)-2-methylpyrrolidin-1-yl]pyridazin-3-one]
3 | 7.97 | 137% | 2.37 | COC[C@@H]1CCCN1c1cnn(Cc2c(-c3ccc(C)nc3)nnn2C)c(=O)c1 [Example 19, 5-[(2S)-2-(methoxymethyl)pyrrolidin-1-yl]-2-[[3-methyl-5-(6-methyl-3-pyridyl)triazol-4-yl]methyl]pyridazin-3-one]
4 | 8.08 | 108% | 2.08 | Cc1nnn(-c2ccc(Cl)cc2)c1Cn1ncc(N2C[C@@H](C)O[C@@H](C)C2)cc1=O [Example 20, 2-[[3-(4-chlorophenyl)-5-methyl-triazol-4-yl]methyl]-5-[(2R,6S)-2,6-dimethylmorpholin-4-yl]pyridazin-3-one]
5 | 8.06 | 140% | 2.4 | Cn1nnc(-c2ccc(Cl)cc2F)c1Cn1ncc(N2CCN(C(=O)C3CC3)CC2)cc1=O [Example 21, 2-[[5-(4-chloro-2-fluoro-phenyl)-3-methyl-triazol-4-yl]methyl]-5-[4-(cyclopropanc-carbonyl)piperazin-1-yl]pyridazin-3-one]
6 | 7.68 | 45% | 1.45 | CNc1cnn(Cc2c(-c3ccc(Cl)cc3F)nnn2C)c(=O)c1 [Example 22, 2-[[5-(4-chloro-2-fluoro-phenyl)-3-methyl-triazol-4-yl]methyl]-5-(methylamino)pyridazin-3-one]
7 | 7.15 | 75% | 1.75 | CCOC1CN(c2cnn(Cc3c(C)nnn3-c3ccc(Cl)cc3F)c(=O)c2)C1 [Example 23, 2-((1-(4-chloro-2-fluorophenyl)-4-methyl-1H-1,2,3-triazol-5-yl)methyl)-5-(3-ethoxyazetidin-1-yl)pyridazin-3(2H)-one]
8 | 7.28 | 60% | 1.6 | Cc1nnn(-c2ccc(Cl)cc2F)c1Cn1ncc(N2Cc3ccccc3C2)cc1=O [Example 24, 2-[[3-(4-chloro-2-fluoro-phenyl)-5-methyl-triazol-4-yl]methyl]-5-isoindolin-2-yl-pyridazin-3-one]
9 | 8.36 | 97% | 1.97 | Cc1ccc(-n2nnc(C)c2Cn2ncc(N3CCC[C@H]3C)cc2=O)cn1 [Example 25, 2-[[5-methyl-3-(6-methyl-3-pyridyl)triazol-4-yl]methyl]-5-[(2R)-2-methylpyrrolidin-1-yl]pyridazin-3-one]
10 | 7.89 | 55% | 1.55 | COC1CN(c2cnn(Cc3c(-c4ccc(Cl)cc4F)nnn3C)c(=O)c2)C1 [Example 26, 2-[[5-(4-chloro-2-fluoro-phenyl)-3-methyl-triazol-4-yl]methyl]-5-(3-methoxyazetidin-1-yl)pyridazin-3-one]
11 | 8.09 | 69% | 1.69 | CCOC1CN(c2cnn(Cc3c(-c4ccc(Cl)cc4F)nnn3C)c(=O)c2)C1 [Example 27, 2-[[5-(4-chloro-2-fluoro-phenyl)-3-methyl-triazol-4-yl]methyl]-5-(3-ethoxyazetidin-1-yl)pyridazin-3-one]
12 | 7.74 | 115% | 2.15 | Cn1nnc(-c2ccc(Cl)cc2F)c1Cn1ncc(N2CC(OCC3CC3)C2)cc1=O [Example 28, 2-[[5-(4-chloro-2-fluoro-phenyl)-3-methyl-triazol-4-yl]methyl]-5-[3-(cyclopropyl-methoxy)azetidin-1-yl]pyridazin-3-one]
13 | 7.82 | 49% | 1.49 | Cn1nnc(-c2ccc(Cl)cc2F)c1Cn1ncc(N2CC3(CCCO3)C2)cc1=O [Example 29, 2-[[5-(4-chloro-2-fluoro-phenyl)-3-methyl-triazol-4-yl]methyl]-5-(5-oxa-2-azaspiro[3.4]octan-2-yl)pyridazin-3-one]
14 | 8.51 | 110% | 2.1 | C[C@@H]1CN(c2cnn(Cc3c(-c4ccc(Cl)cc4)nnn3C)c(=O)c2)C[C@H](C)O1 [Example 30, 2-[[5-(4-chlorophenyl)-3-methyl-triazol-4-yl]methyl]-5-[(2R,6S)-2,6-dimethylmorpholin-4-yl]pyridazin-3-one]
15 | 7.76 | 35% | 1.35 | CN(C)c1cnn(Cc2c(-c3ccc(Cl)cc3)nnn2C)c(=O)c1 [Example 31, 2-[[5-(4-chlorophenyl)-3-methyl-triazol-4-yl]methyl]-5-(dimethylamino)pyridazin-3-one]
16 | 7.33 | 98% | 1.98 | CO[C@@H]1COC2(C1)CN(c1cnn(Cc3c(-c4ccc(Cl)cc4F)nnn3C)c(=O)c1)C2 [Example 32, (S)-2-((4-(4-chloro-2-fluorophenyl)-1-methyl-1H-1,2,3-triazol-5-yl)methyl)-5-(7-methoxy-5-oxa-2-azaspiro[3.4]octan-2-yl)pyridazin-3(2H)-one]
17 | 7.78 | 61% | 1.61 | CO[C@H]1COC2(C1)CN(c1cnn(Cc3c(-c4ccc(Cl)cc4F)nnn3C)c(=O)c1)C2 [Example 33, (R)-2-((4-(4-chloro-2-fluorophenyl)-1-methyl-1H-1,2,3-triazol-5-yl)methyl)-5-(7-methoxy-5-oxa-2-azaspiro[3.4]octan-2-yl)pyridazin-3(2H)-one]
